Measured values as given in patent US20240409585A1, “MACROCYCLIC IMMUNOMODULATORS” (priority 2021, published 2024).
Numbered stars: 1 amine (or outer) side, 2 acyl side, 3 side chain; on linkers, the order of the positions; unused ones are H or OH. Bridge positions count the residues as written; N and C are the ends. Square brackets hold non-standard residues; d marks the D form. Peptide text beside a SMILES is read from it. * marks the point of attachment. ξ: configuration not given here. Tyr(3-NO2) = N[C@@H](Cc1ccc(O)c([N+](=O)[O-])c1)C(=O)O; X35 = O=C([C@H](Cc1ccc(-c2cccc(F)c2)cc1)N[*:1])[*:2]; X40 = O=C([C@H](Cc1ccc(-c2cccc(O)c2)cc1)N[*:1])[*:2]; Phe(4-COOH) = N[C@@H](Cc1ccc(C(=O)O)cc1)C(=O)O; Bip = N[C@@H](Cc1ccc(-c2ccccc2)cc1)C(=O)O; Phe(3-Cl) = N[C@@H](Cc1cccc(Cl)c1)C(=O)O; Phe(3-Me) = Cc1cccc(C[C@H](N)C(=O)O)c1; Val(3-OH) = CC(C)(O)[C@H](N)C(=O)O; 3Pal = N[C@@H](Cc1cccnc1)C(=O)O; 4Pal = N[C@@H](Cc1ccncc1)C(=O)O; 2Thi = N[C@@H](Cc1cccs1)C(=O)O; Cha = N[C@@H](CC1CCCCC1)C(=O)O; Ile(3ξ) = CCC(C)[C@H](N)C(=O)O; Thr(3ξ) = CC(O)[C@H](N)C(=O)O; ξCha = NC(CC1CCCCC1)C(=O)O; Carboxymethyl = O=C(O)C*; NMeA = CN[C@@H](C)C(=O)O; Orn = NCCC[C@H](N)C(=O)O; dAbu = CC[C@@H](N)C(=O)O; Dab = NCC[C@H](N)C(=O)O; Dap = NC[C@H](N)C(=O)O; ξC = NC(CS)C(=O)O

Target: T1, PE-labeled human PD-L1-Ig binding to Jurkat cell line over-expressing human PD-1 (Jurkat-PD-1) (Homo sapiens, UniProt Q15116)
T1 construct: expressed in transfected cells; host or cells: Jurkat
Test: Jurkat-PD-1 Cell Binding High-Content Screening Assay (CBA): Method 1
Settings: Jurkat-PD-1 cells, PE-labeled PD-L1-Ig; μM; read-out: CBA Method 1 μM

T1 sequence (Q15116 25-288): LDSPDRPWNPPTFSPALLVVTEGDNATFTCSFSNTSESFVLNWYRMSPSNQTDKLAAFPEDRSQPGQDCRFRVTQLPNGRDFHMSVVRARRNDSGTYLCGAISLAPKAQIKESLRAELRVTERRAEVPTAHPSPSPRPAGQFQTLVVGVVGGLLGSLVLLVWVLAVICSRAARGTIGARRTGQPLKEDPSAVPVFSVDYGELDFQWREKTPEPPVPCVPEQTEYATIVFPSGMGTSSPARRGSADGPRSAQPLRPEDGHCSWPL

Structure (SMILES) | IC50
CCC(C)[C@@H]1NC(=O)[C@H](Cc2ccc(-c3ccccc3)cc2)NC(=O)[C@H](C(C)C)NC(=O)[C@H](Cc2c[nH]c3ccccc23)NC(=O)[C@H](CC(=O)O)NC(=O)[C@H](Cc2ccc(OCC(=O)O)cc2)NC(=O)[C@H](C(C)O)NC(=O)CSC[C@@H](C(=O)N[C@H](CO)C(=O)NCC(=O)N[C@@H](CO)C(N)=O)NC(=O)[C@H](CO)NC(=O)[C@H](C(C)C)NC(=O)C(CC2CCCCC2)NC(=O)[C@H](CCN)NC(=O)[C@@H](CC(C)C)NC(=O)[C@H](C)N(C)C1=O (stereo partly drawn) [Example 5006] ({CH2CO}-[Thr(3ξ)]Y(Carboxymethyl)DWV[Bip][Ile(3ξ)][NMeA][dL][Dab][ξCha]VSC[dS]GS-NH2; thioether N-14) | 0.02 µM
CCC(C)[C@@H]1NC(=O)[C@H](Cc2ccc(-c3ccccc3)cc2)NC(=O)[C@H](C(C)C)NC(=O)[C@H](Cc2cccc(C)c2)NC(=O)[C@H](CC(=O)O)NC(=O)[C@H](Cc2ccc(OCC(=O)O)cc2)NC(=O)[C@H](C(C)O)NC(=O)CSC[C@@H](C(=O)N[C@@H](CO)C(=O)NCC(=O)N[C@H](CO)C(N)=O)NC(=O)[C@H](C(C)O)NC(=O)[C@H](C(C)C)NC(=O)C(CC2CCCCC2)NC(=O)[C@H](CCN)NC(=O)[C@@H](CC(C)C)NC(=O)[C@H](C)N(C)C1=O (stereo partly drawn) [Example 5005] ({CH2CO}-[Thr(3ξ)]Y(Carboxymethyl)D[Phe(3-Me)]V[Bip][Ile(3ξ)][NMeA][dL][Dab][ξCha]V[Thr(3ξ)]CSG[dS]-NH2; thioether N-14) | 0.02 µM

Same assay, conditions: Jurkat-hPD-1 cells, PE-labeled PD-L1-Ig 20 nM final; read-out: Jurkat HPDL1 PD1 IC50 (uM) (Method 1)

Structure (SMILES) | IC50
Cc1cccc(C[C@@H]2NC(=O)[C@H](CC(=O)O)NC(=O)[C@H](Cc3ccc(C(=O)O)cc3)NC(=O)[C@H](Cc3ccc(OCC(=O)O)cc3)NC(=O)CSC[C@@H](C(N)=O)NC(=O)[C@H](CO)NC(=O)[C@H](C(C)C)NC(=O)[C@H](CC3CCCCC3)NC(=O)[C@H](CC(N)=O)NC(=O)[C@@H](CC(C)C)NC(=O)[C@H](C)N(C)C(=O)[C@H](C(C)C)NC(=O)[C@H](Cc3ccc(-c4ccccc4)cc3)NC(=O)[C@H](CC(C)C)NC2=O)c1 [Compound 1681] ({CH2CO}-Y(Carboxymethyl)[Phe(4-COOH)]D[Phe(3-Me)]L[Bip]V[NMeA][dL]N[Cha]VSC-NH2; thioether N-14) | 0.03 µM
CC(C)C[C@@H]1NC(=O)[C@H](Cc2c[nH]c3ccccc23)NC(=O)[C@H](CC(=O)O)NC(=O)[C@H](Cc2ccc(O)cc2)NC(=O)[C@H](Cc2ccccc2)NC(=O)CSC[C@@H](C(=O)N[C@@H](C)C(N)=O)NC(=O)[C@H](CO)NC(=O)[C@H](C(C)C)NC(=O)[C@H](CC(C)C)NC(=O)[C@H](CC(N)=O)NC(=O)[C@@H](C)NC(=O)[C@H](C)N(C)C(=O)[C@H](C(C)C)NC(=O)[C@H](Cc2ccc(-c3cccc(F)c3)cc2)NC1=O [Compound 1759] ({CH2CO}-FYDWL[X35]V[NMeA][dA]NLVSCA-NH2; thioether N-14) | 0.03 µM
CC(C)C[C@@H]1NC(=O)[C@H](CCN)NC(=O)[C@@H](CC(C)C)NC(=O)[C@H](C)N(C)C(=O)[C@H](CCCNC(=N)N)NC(=O)[C@H](Cc2ccc(-c3ccccc3)cc2)NC(=O)[C@H](C(C)C)NC(=O)[C@H](Cc2cccc(Cl)c2)NC(=O)[C@H](CC(=O)O)NC(=O)[C@H](Cc2ccc(OCC(=O)O)cc2)NC(=O)[C@H](CN)NC(=O)CSC[C@@H](C(=O)N[C@@H](C)C(N)=O)NC(=O)[C@H]([C@@H](C)O)NC(=O)[C@H](C(C)C)NC1=O [Compound 1458] ({CH2CO}-[Dap]Y(Carboxymethyl)D[Phe(3-Cl)]V[Bip]R[NMeA][dL][Dab]LVTCA-NH2; thioether N-14) | 0.04 µM
CC(C)C[C@@H]1NC(=O)[C@H](CCN)NC(=O)[C@@H](CC(C)C)NC(=O)[C@H](C)N(C)C(=O)[C@H](CCCNC(=N)N)NC(=O)[C@H](Cc2ccc(-c3ccccc3)cc2)NC(=O)[C@H](C(C)C)NC(=O)[C@H](Cc2c[nH]c3ccccc23)NC(=O)[C@H](CC(=O)O)NC(=O)[C@H](Cc2ccc(O)c([N+](=O)[O-])c2)NC(=O)[C@H](Cc2cccnc2)NC(=O)CSC[C@@H](C(=O)N[C@@H](C)C(N)=O)NC(=O)[C@H]([C@@H](C)O)NC(=O)[C@H](C(C)C)NC1=O [Compound 1155] ({CH2CO}-[3Pal][Tyr(3-NO2)]DWV[Bip]R[NMeA][dL][Dab]LVTCA-NH2; thioether N-14) | 0.02 µM
CC(=O)NCC[C@H](NC(=O)[C@@H]1CSCC(=O)N[C@@H](Cc2cccs2)C(=O)N[C@@H](Cc2ccc(OCC(=O)O)cc2)C(=O)N[C@@H](CC(=O)O)C(=O)N[C@@H](Cc2cccc(C)c2)C(=O)N[C@@H](Cc2ccc(C(=O)O)cc2)C(=O)N[C@@H](Cc2ccc(-c3ccccc3)cc2)C(=O)N[C@@H](Cc2ccc(OCC(=O)O)cc2)C(=O)N(C)[C@@H](C)C(=O)N[C@H](CC(C)C)C(=O)N[C@@H](CCN)C(=O)N[C@@H](CC2CCCCC2)C(=O)N[C@@H](C(C)(C)O)C(=O)N[C@@H](Cc2cnc[nH]2)C(=O)N1)C(N)=O [Compound 2163] ({CH2CO}-[2Thi]Y(Carboxymethyl)D[Phe(3-Me)][Phe(4-COOH)][Bip]Y(Carboxymethyl)[NMeA][dL][Dab][Cha][Val(3-OH)]HC[Dab](Ac)-NH2; thioether N-14) | 0.01 µM
CCC(C)[C@@H]1NC(=O)[C@H](Cc2ccc(-c3ccccc3)cc2)NC(=O)[C@H](CC(C)C)NC(=O)[C@H](Cc2c[nH]c3ccccc23)NC(=O)[C@H](CC(=O)O)NC(=O)[C@H](Cc2ccc(C(=O)O)cc2)NC(=O)[C@H](Cc2ccc(OCC(=O)O)cc2)NC(=O)CSC[C@@H](C(=O)N[C@@H](CO)C(N)=O)NC(=O)[C@H](CCC(=O)O)NC(=O)[C@H](C(C)C)NC(=O)[C@H](CC2CCCCC2)NC(=O)[C@H](CCN)NC(=O)[C@@H](CC(C)C)NC(=O)[C@H](C)N(C)C1=O (stereo partly drawn) [Compound 1930] ({CH2CO}-Y(Carboxymethyl)[Phe(4-COOH)]DWL[Bip][Ile(3ξ)][NMeA][dL][Dab][Cha]VECS-NH2; thioether N-14) | 0.02 µM
CC(C)C[C@@H]1NC(=O)[C@H](CCN)NC(=O)[C@@H](CC(C)C)NC(=O)[C@H](C)N(C)C(=O)[C@H](CCCNC(=N)N)NC(=O)[C@H](Cc2ccc(-c3cccc(O)c3)cc2)NC(=O)[C@H](C(C)C)NC(=O)[C@H](Cc2c[nH]c3ccccc23)NC(=O)[C@H](CC(=O)O)NC(=O)[C@H](Cc2ccc(O)cc2)NC(=O)[C@H](CC(N)=O)NC(=O)CSC[C@@H](C(=O)N[C@@H](C)C(N)=O)NC(=O)[C@H]([C@@H](C)O)NC(=O)[C@H](C(C)C)NC1=O [Compound 1212] ({CH2CO}-NYDWV[X40]R[NMeA][dL][Dab]LVTCA-NH2; thioether N-14) | 0.69 µM
CCC(C)[C@@H]1NC(=O)[C@H](Cc2ccc(-c3ccccc3)cc2)NC(=O)[C@H](C(C)C)NC(=O)[C@H](Cc2c[nH]c3ccccc23)NC(=O)[C@H](CC(=O)O)NC(=O)[C@H](Cc2ccc(OCC(=O)O)cc2)NC(=O)[C@H](Cc2cnc[nH]2)NC(=O)CSC[C@@H](C(=O)N[C@@H](CCN)C(N)=O)NC(=O)[C@H](CO)NC(=O)[C@H](C(C)(C)O)NC(=O)[C@H](CC2CCCCC2)NC(=O)[C@H](CCN)NC(=O)[C@@H](CC(C)C)NC(=O)[C@H](C)N(C)C1=O (stereo partly drawn) [Compound 2204] ({CH2CO}-HY(Carboxymethyl)DWV[Bip][Ile(3ξ)][NMeA][dL][Dab][Cha][Val(3-OH)]SC[Dab]-NH2; thioether N-14) | 0.01 µM
CC(C)C[C@@H]1NC(=O)[C@H](CCN)NC(=O)[C@@H](CC(C)C)NC(=O)[C@H](C)N(C)C(=O)[C@H](CCCN)NC(=O)[C@H](Cc2ccc(-c3ccccc3)cc2)NC(=O)[C@H](C(C)C)NC(=O)[C@H](Cc2c[nH]c3ccccc23)NC(=O)[C@H](CC(=O)O)NC(=O)[C@H](Cc2ccc(O)cc2)NC(=O)[C@H](Cc2ccncc2)NC(=O)CSC[C@@H](C(=O)N[C@@H](C)C(N)=O)NC(=O)[C@H](C(C)O)NC(=O)[C@H](C(C)C)NC1=O (stereo partly drawn) [Compound 2081] ({CH2CO}-[4Pal]YDWV[Bip][Orn][NMeA][dL][Dab]LV[Thr(3ξ)]CA-NH2; thioether N-14) | 0.03 µM
CCC(C)[C@@H]1NC(=O)[C@H](Cc2ccc(-c3ccccc3)cc2)NC(=O)[C@H](C(C)C)NC(=O)[C@H](Cc2cccc(C)c2)NC(=O)[C@H](CC(=O)O)NC(=O)[C@H](Cc2ccc(OCC(=O)O)cc2)NC(=O)[C@H](Cc2ccncc2)NC(=O)CSCC(C(=O)N[C@@H](CCC(=O)O)C(=O)N[C@@H](CN)C(=O)O)NC(=O)[C@H](CO)NC(=O)[C@H](C(C)C)NC(=O)[C@H](CC2CCCCC2)NC(=O)[C@H](CC(N)=O)NC(=O)[C@@H](CC(C)C)NC(=O)[C@H](C)N(C)C1=O (stereo partly drawn) [Compound 2007] ({CH2CO}-[4Pal]Y(Carboxymethyl)D[Phe(3-Me)]V[Bip][Ile(3ξ)][NMeA][dL]N[Cha]VS[ξC]E[Dap]-OH; thioether N-14) | 0.01 µM
CC[C@H]1NC(=O)[C@H](C)N(C)C(=O)[C@H](CCCNC(=N)N)NC(=O)[C@H](Cc2ccc(-c3ccccc3)cc2)NC(=O)[C@H](C(C)C)NC(=O)[C@H](Cc2c[nH]c3ccccc23)NC(=O)[C@H](CC(=O)O)NC(=O)[C@H](Cc2ccc(O)cc2)NC(=O)[C@H](Cc2ccccc2)NC(=O)CSC[C@@H](C(=O)N[C@@H](C)C(N)=O)NC(=O)[C@H]([C@@H](C)O)NC(=O)[C@H](C(C)C)NC(=O)[C@H](CC(C)C)NC(=O)[C@H](CCCNC(=N)N)NC1=O [Compound 1069] ({CH2CO}-FYDWV[Bip]R[NMeA][dAbu]RLVTCA-NH2; thioether N-14) | 0.22 µM
CC(C)C[C@@H]1NC(=O)[C@H](Cc2c[nH]c3ccccc23)NC(=O)[C@H](CC(=O)O)NC(=O)[C@H](Cc2ccc(O)cc2)NC(=O)[C@H](Cc2ccccc2)NC(=O)CSC[C@@H](C(=O)N[C@@H](C)C(N)=O)NC(=O)[C@H](CO)NC(=O)[C@H](CCCCN)NC(=O)[C@H](CC(C)C)NC(=O)[C@H](CC(N)=O)NC(=O)[C@@H](CC(C)C)NC(=O)[C@H](C)N(C)C(=O)[C@H](C(C)C)NC(=O)[C@H](Cc2ccc(-c3ccccc3)cc2)NC1=O [Compound 1536] ({CH2CO}-FYDWL[Bip]V[NMeA][dL]NLKSCA-NH2; thioether N-14) | 0.01 µM
CC(C)C[C@@H]1NC(=O)[C@H](Cc2c[nH]c3ccccc23)NC(=O)[C@H](CC(=O)O)NC(=O)[C@H](Cc2ccc(O)cc2)NC(=O)[C@H](CC(N)=O)NC(=O)CSC[C@@H](C(=O)NCC(N)=O)NC(=O)[C@H](CO)NC(=O)[C@H](C(C)C)NC(=O)[C@H](CC(C)C)NC(=O)[C@H](CC(N)=O)NC(=O)[C@H](CC(N)=O)NC(=O)[C@H](C)N(C)C(=O)[C@H](C(C)C)NC(=O)[C@H](Cc2ccc(-c3ccccc3)cc2)NC1=O [Compound 1822] ({CH2CO}-NYDWL[Bip]V[NMeA]NNLVSCG-NH2; thioether N-14) | 0.58 µM
